The record followed here is patent US20250214991A1 (Oncopia Therapeutics, Inc. d/b/a/ SK Life Science Labs, priority 2022, published 2025).

The target in experiment [1] is CRBN/DDB1 (Homo sapiens (Human), UniProt Q96SW2). Description: IC50 measurements for binding to CRBN/DDB1 (HTRF). The note with it: His tagged CRBN+DDB, Cy5-labeled Thalidomide probe, one hour. The procedure, abridged:
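Serially diluted compounds compete with a Cy5-labeled thalidomide tracer (60 nM) for His-tagged CRBN-DDB1 (2 nM), detected via anti-6His Tb cryptate (0.4 nM); buffer HEPES pH 7.5 with TCEP, Brij-35, NaCl, BSA. One-hour room-temperature incubation, HTRF signal read, IC50 by four-parameter curve.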
In general terms: TR-FRET usually uses a lanthanide donor and a delayed reading to cut background.

The target in experiment [2] is T1, IKZF2 (Homo sapiens (Human), UniProt Q96SW2+Q9UKS7). The experiment in a line: In vitro IKZF2 FACS Assay in Jurkat cells. It counts as cell-based. To be noted: 24 hrs; for DC50: half maximal degradation concentration; for Dmax: maximal degradation percentage. Here is the method:
In vitro IKZF2 FACS Assay
DC50, A: <1 nM; B: 1-10 nM; C: 10-100 nM; D: 100-1000 nM; E: >1000 nM. Dmax, A: >80%; B: 60-80%; C: 40-60%; D: 20-40%; E: <20%.

In experiment [3] the target is T1, IKZF2. Description: In vitro IKZF2 HiBit Assay (HEK293T Flp-in-HiBiT cells). In kind it is cell-based. The note with it: HEK293T Flp-in-HiBiT cells, 6 hrs incubation; for DC50: read-out: IKZF2 HiBit DC50; for Dmax: HEK-293T, read-out: IKZF2 HiBit Dmax (%). The gist of the method:
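Remaining tagged Helios was read as lytic HiBiT/LgBiT luminescence normalized to DMSO, yielding binned DC50 and Dmax values. Treatment ran 6 h, with compounds at 11 three-fold doses diluted from 1 mM and 0.1% final DMSO. The cells were HEK293T Flp-in with CRISPR knock-in of HiBiT at the IKZF2 N-terminus.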
For orientation: The HiBiT peptide binds its large partner to form an active luciferase.

For experiment [4], the target named is IKZF1 (Homo sapiens (Human), UniProt Q13422+Q96SW2). The experiment in a line: In vitro IKZF1 HiBit Assay (HEK293T Flp-in-HiBiT-IKZF1 stable cell line). The note with it: HEK293T Flp-in-HiBiT-IKZF1 stable cell line, 6 hrs incubation; for DC50: read-out: IKZF1 HiBit DC50; for Dmax: HEK-293T, read-out: IKZF1 HiBit Dmax (%). In kind it is cell-based. The gist of the method:
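Degradation was measured as loss of luminescence from the HiBiT-IKZF1 tag after 6 h compound treatment, with 0.1% final DMSO, in stable HEK293T Flp-in cells. Values were normalized to DMSO, giving the 50% degradation concentration and the maximal degradation range.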

Bounds are passed on as bounds.

IKZF1, sequence (Q13422 whole entry): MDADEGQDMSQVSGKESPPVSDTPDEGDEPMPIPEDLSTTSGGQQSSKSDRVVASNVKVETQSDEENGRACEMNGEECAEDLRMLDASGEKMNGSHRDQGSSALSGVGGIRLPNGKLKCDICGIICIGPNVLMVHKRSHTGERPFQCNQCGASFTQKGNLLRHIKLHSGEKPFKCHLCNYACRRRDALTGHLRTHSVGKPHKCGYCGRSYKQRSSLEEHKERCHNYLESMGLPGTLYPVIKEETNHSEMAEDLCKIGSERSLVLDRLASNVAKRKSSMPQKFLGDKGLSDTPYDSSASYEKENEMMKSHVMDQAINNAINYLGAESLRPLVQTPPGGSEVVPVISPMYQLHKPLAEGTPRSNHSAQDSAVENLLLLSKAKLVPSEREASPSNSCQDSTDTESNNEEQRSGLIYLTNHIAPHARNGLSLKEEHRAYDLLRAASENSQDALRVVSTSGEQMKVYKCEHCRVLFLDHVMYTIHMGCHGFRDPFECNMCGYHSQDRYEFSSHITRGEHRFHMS
IKZF1, sequence (Q96SW2 whole entry): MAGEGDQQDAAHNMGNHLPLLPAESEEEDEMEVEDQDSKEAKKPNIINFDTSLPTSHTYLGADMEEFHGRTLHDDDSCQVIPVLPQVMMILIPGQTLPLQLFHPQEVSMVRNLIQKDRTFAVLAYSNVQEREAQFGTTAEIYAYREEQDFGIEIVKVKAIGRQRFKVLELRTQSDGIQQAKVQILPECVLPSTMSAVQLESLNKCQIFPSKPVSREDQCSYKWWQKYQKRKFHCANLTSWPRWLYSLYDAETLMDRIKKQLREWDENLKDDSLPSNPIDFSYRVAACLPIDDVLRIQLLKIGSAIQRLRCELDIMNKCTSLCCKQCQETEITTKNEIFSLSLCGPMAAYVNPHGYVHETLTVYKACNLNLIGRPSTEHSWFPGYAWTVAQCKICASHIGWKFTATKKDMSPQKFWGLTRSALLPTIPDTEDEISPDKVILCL
IKZF1, sequence (Q16531 2-1140 partner): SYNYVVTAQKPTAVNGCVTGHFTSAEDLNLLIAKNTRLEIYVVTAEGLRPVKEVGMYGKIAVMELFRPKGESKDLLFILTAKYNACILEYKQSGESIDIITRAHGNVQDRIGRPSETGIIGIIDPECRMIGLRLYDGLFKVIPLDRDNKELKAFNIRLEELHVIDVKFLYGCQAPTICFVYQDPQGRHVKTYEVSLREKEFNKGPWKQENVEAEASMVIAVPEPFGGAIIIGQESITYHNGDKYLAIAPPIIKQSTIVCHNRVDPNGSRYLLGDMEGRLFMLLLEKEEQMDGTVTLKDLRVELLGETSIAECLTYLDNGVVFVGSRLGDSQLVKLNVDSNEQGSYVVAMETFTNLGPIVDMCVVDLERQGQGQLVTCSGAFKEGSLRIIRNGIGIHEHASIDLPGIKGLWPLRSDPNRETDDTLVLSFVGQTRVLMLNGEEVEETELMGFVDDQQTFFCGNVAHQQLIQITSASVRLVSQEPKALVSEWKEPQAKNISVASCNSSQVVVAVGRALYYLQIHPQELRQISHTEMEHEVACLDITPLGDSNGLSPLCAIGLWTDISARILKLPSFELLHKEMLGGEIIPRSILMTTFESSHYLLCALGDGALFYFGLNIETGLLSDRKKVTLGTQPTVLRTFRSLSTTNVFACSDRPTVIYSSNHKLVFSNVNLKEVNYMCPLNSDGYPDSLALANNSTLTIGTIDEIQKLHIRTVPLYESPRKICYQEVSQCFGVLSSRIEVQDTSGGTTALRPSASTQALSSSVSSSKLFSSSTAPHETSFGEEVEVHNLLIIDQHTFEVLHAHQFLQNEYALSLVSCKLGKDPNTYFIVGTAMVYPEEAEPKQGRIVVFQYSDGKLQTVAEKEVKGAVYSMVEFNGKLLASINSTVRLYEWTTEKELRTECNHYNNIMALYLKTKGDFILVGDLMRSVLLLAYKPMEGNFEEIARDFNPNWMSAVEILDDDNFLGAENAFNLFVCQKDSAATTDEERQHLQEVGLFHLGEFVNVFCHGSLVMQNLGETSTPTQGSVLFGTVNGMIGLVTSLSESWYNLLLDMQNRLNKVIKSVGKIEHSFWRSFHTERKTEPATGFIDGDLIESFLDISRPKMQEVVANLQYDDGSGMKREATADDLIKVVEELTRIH
T1 sequence (Q9UKS7 whole entry): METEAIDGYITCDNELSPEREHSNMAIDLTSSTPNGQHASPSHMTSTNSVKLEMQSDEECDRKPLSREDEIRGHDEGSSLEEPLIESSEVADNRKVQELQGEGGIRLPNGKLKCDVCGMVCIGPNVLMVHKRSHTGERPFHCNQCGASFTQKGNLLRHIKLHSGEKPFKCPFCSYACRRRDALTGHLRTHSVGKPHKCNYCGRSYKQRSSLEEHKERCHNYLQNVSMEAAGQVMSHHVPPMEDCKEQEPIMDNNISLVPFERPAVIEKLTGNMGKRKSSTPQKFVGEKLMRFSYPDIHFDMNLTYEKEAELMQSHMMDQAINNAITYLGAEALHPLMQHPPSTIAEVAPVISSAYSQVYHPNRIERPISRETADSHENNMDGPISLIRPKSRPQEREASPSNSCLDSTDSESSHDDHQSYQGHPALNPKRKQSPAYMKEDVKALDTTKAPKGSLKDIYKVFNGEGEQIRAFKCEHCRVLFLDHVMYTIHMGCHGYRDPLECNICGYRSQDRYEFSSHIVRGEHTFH
T1 sequence (Q96SW2 whole entry): as the sequence (Q96SW2 whole entry) above
T1 sequence (Q16531 2-1140 partner): as the sequence (Q16531 2-1140 partner) above
CRBN/DDB1, sequence (Q96SW2 whole entry, species assumed): as the sequence (Q96SW2 whole entry) above
CRBN/DDB1, sequence (Q16531 whole entry partner, species assumed): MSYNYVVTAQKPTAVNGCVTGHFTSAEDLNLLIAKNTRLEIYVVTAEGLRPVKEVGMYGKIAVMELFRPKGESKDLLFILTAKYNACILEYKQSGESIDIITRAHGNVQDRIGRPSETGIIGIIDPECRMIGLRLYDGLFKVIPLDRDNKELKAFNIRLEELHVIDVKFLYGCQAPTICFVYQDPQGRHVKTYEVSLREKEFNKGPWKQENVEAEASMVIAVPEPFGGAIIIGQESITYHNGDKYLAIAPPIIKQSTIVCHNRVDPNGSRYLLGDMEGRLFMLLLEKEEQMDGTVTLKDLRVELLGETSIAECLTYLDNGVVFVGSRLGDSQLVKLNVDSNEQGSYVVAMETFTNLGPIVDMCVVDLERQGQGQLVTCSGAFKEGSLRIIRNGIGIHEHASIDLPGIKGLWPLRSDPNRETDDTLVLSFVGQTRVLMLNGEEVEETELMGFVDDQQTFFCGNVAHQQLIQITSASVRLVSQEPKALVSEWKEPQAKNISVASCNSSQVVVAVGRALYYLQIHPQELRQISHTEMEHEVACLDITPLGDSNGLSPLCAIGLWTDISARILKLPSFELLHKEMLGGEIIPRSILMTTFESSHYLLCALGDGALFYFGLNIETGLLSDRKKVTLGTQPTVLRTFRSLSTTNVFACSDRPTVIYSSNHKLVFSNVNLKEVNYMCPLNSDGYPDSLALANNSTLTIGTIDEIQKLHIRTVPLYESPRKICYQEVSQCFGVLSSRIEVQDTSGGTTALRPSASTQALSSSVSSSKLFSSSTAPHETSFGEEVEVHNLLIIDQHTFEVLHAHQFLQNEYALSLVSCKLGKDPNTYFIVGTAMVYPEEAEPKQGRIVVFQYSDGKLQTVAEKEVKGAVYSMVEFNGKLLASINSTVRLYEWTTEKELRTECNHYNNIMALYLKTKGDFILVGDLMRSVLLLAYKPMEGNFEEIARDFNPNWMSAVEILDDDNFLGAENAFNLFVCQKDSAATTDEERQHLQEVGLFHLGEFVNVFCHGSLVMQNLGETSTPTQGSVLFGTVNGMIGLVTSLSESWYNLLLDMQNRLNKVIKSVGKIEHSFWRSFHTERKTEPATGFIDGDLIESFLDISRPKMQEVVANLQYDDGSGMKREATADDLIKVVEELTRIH

As usually defined, the IC50 is the midpoint of a concentration-inhibition curve. In turn, `O=C1CCC(N2Cc3cc(-c4cc(CN5CCCC5)cc5cncn45)ccc3C2=O)C(=O)N1` (stereo not drawn) [Example 1, 3-(1-oxo-5-(7-(pyrrolidin-1-ylmethyl)imidazo[1,5-a]pyridin-5-yl)isoindolin-2-yl) piperidine-2,6-dione] yielded an IC50 in experiment [1] of 100 to 500 nM. Besides, the DC50 is 10 to 100 nM in experiment [2], 10 to 100 nM in experiment [3] and above 10000 nM in experiment [4]. In addition, the Dmax is 60 to 80% in experiment [2], 60 to 80% in experiment [3] and below 20% in experiment [4].
In the case of `O=C1CCC(N2Cc3cc(-c4cc(CN5CCCCC5)cc5cncn45)ccc3C2=O)C(=O)N1` (stereo not drawn) [Example 3, 3-(1-oxo-5-(7-(piperidin-1-ylmethyl)imidazo[1,5-a]pyridin-5-yl)isoindolin-2-yl) piperidine-2,6-dione], the concentration for half-maximal inhibition (IC50) in experiment [1] was in the range of 100 to 500 nM. The values for the DC50 in experiment [2], in experiment [3] and in experiment [4] were 10 to 100 nM, 10 to 100 nM and above 10000 nM, respectively. Besides, the Dmax was 40 to 60% in experiment [2], 60 to 80% in experiment [3] and below 20% in experiment [4].
In experiment [1], `CC1CCN(Cc2cc(-c3ccc4c(c3)CN(C3CCC(=O)NC3=O)C4=O)n3cncc3c2)C1` (stereo not drawn) [Example 6, 3-(5-(7-((3-methylpyrrolidin-1-yl)methyl)imidazo[1,5-a]pyridin-5-yl)-1-oxoisoindolin-2-yl) piperidine-2,6-dione] registered an IC50 of 100 to 500 nM. Moreover, the DC50 in experiment [2] was 10 to 100 nM; in experiment [3] it was 10 to 100 nM; in experiment [4], above 10000 nM. The Dmax is 60 to 80% in experiment [2], 60 to 80% in experiment [3] and below 20% in experiment [4].
`O=C1CCC(N2Cc3cc(-c4cc(CN5CCC6(CC5)CC6)cc5cncn45)ccc3C2=O)C(=O)N1` (stereo not drawn) [Example 8, 3-(5-(7-((6-azaspiro[2.5]octan-6-yl)methyl)imidazo[1,5-a]pyridin-5-yl)-1-oxoisoindolin-2-yl) piperidine-2,6-dione] had an IC50 in experiment [1] of 1000 to 5000 nM. Besides, the DC50 in experiment [2] is 10 to 100 nM; in experiment [3], 10 to 100 nM; in experiment [4], above 10000 nM. Besides, the Dmax in experiment [2] is 40 to 60%; in experiment [3] it was 40 to 60%; in experiment [4] it was below 20%.
As to `O=C1CCC(N2Cc3cc(-c4cc(CN5CCC6(CC5)COC6)cc5cncn45)ccc3C2=O)C(=O)N1` (stereo not drawn) [Example 10, 3-(5-(7-((2-oxa-7-azaspiro[3.5]nonan-7-yl)methyl)imidazo[1,5-a]pyridin-5-yl)-1-oxoisoindolin-2-yl) piperidine-2,6-dione], the IC50 in experiment [1] lay in the range of 500 to 1000 nM. Further, the values for the DC50 in experiment [2], in experiment [3] and in experiment [4] were 1 to 10 nM, 1000 to 10000 nM and above 10000 nM, respectively. Also, the figures for the Dmax in experiment [2], in experiment [3] and in experiment [4] were 40 to 60%, 40 to 60% and below 20%, respectively.
Take `O=C1CCC(N2Cc3cc(-c4ncc5cc(CN6CCCC6)ccn45)ccc3C2=O)C(=O)N1` (stereo not drawn) [Example 52, 3-(1-oxo-5-(7-(pyrrolidin-1-ylmethyl)imidazo[1,5-a]pyridin-3-yl)isoindolin-2-yl) piperidine-2,6-dione]: the IC50 in experiment [1] is 500 to 1000 nM. In addition, the DC50 is 10 to 100 nM in experiment [2], 1 to 10 nM in experiment [3] and above 10000 nM in experiment [4]. Moreover, the figures for the Dmax in experiment [2], in experiment [3] and in experiment [4] were 40 to 60%, 60 to 80% and below 20%, respectively.
For the compound `O=C1CCC(N2Cc3cc(-c4ccc(CN5CCCC5)c5cncn45)ccc3C2=O)C(=O)N1` (stereo not drawn) [Example 54, 3-(1-oxo-5-(8-(pyrrolidin-1-ylmethyl)imidazo[1,5-a]pyridin-5-yl)isoindolin-2-yl) piperidine-2,6-dione], the 50% inhibitory concentration (IC50) in experiment [1] lay within 1000 to 5000 nM. The figures for the DC50 in experiment [2], in experiment [3] and in experiment [4] were below 1 nM, 1000 to 10000 nM and above 10000 nM, respectively. Moreover, the Dmax in experiment [2] was above 80%; in experiment [3], below 20%; in experiment [4] it was below 20%.
As to `Cn1ccc2c(CN3CCCC3)cc(-c3ccc4c(c3)CN(C3CCC(=O)NC3=O)C4=O)nc21` (stereo not drawn) [Example 55, 3-(5-(1-methyl-4-(pyrrolidin-1-ylmethyl)-1H-pyrrolo[2,3-b]pyridin-6-yl)-1-oxoisoindolin-2-yl) piperidine-2,6-dione], the concentration for half-maximal inhibition (IC50) in experiment [1] was in the range of 100 to 500 nM. The DC50 in experiment [2] was below 1 nM; in experiment [3] it was below 1 nM; in experiment [4] it was above 10000 nM. Further, the Dmax in experiment [2] is above 80%; in experiment [3], above 80%; in experiment [4], 20 to 40%.
`Cn1ccc2c(CN3CCC3)cc(-c3ccc4c(c3)CN(C3CCC(=O)NC3=O)C4=O)nc21` (stereo not drawn) [Example 56, 3-(5-(4-(azetidin-1-ylmethyl)-1-methyl-1H-pyrrolo[2,3-b]pyridin-6-yl)-1-oxoisoindolin-2-yl) piperidine-2,6-dione] gave an IC50 in experiment [1] below 100 nM. Besides, the DC50 in experiment [2] is 1 to 10 nM; in experiment [3] it was below 1 nM; in experiment [4], above 10000 nM. Further, the results for the Dmax in experiment [2], in experiment [3] and in experiment [4] were 60 to 80%, above 80% and 20 to 40%, respectively.
As to `O=C1CCC(N2Cc3cc(-c4cc(CN5CCCC5)c5cn[nH]c5n4)ccc3C2=O)C(=O)N1` (stereo not drawn) [Example 105, 3-(1-oxo-5-(4-(pyrrolidin-1-ylmethyl)-1H-pyrazolo[3,4-b]pyridin-6-yl)isoindolin-2-yl) piperidine-2,6-dione], in experiment [1], the IC50 was in the range of 500 to 1000 nM. For the same compound, the figures for the DC50 in experiment [2], in experiment [3] and in experiment [4] were 1 to 10 nM, 1 to 10 nM and 1000 to 10000 nM, respectively. The Dmax in experiment [2] was above 80%; in experiment [3], above 80%; in experiment [4], 20 to 40%.
In experiment [1], `O=C1CCC(N2Cc3cc(-c4cc(CN5CCC(F)CC5)c5cc[nH]c5n4)ccc3C2=O)C(=O)N1` (stereo not drawn) [Example 116, 3-(5-(4-((4-fluoropiperidin-1-yl)methyl)-1H-pyrrolo[2,3-b]pyridin-6-yl)-1-oxoisoindolin-2-yl) piperidine-2,6-dione] showed an IC50 of 100 to 500 nM. For the same compound, the DC50 in experiment [2] is 1 to 10 nM; in experiment [3], below 1 nM; in experiment [4], 1 to 10 nM. The values for the Dmax in experiment [2], in experiment [3] and in experiment [4] were above 80%, above 80% and 20 to 40%, respectively.
For the compound `O=C1CCC(N2Cc3cc(-c4cc(CN5CC(F)C5)c5cc[nH]c5n4)ccc3C2=O)C(=O)N1` (stereo not drawn) [Example 117, 3-(5-(4-((3-fluoroazetidin-1-yl)methyl)-1H-pyrrolo[2,3-b]pyridin-6-yl)-1-oxoisoindolin-2-yl) piperidine-2,6-dione], the IC50 in experiment [1] was 100 to 500 nM. For the same compound, the figures for the DC50 in experiment [2], in experiment [3] and in experiment [4] were 1 to 10 nM, 1 to 10 nM and above 10000 nM, respectively. Also, the Dmax in experiment [2] is above 80%; in experiment [3] it was above 80%; in experiment [4], below 20%.
As to `O=C1CCC(N2Cc3cc(-c4cc(CN5CCCC5)c5ccn(C6CC6)c5n4)ccc3C2=O)C(=O)N1` (stereo not drawn) [Example 119, 3-(5-(1-cyclopropyl-4-(pyrrolidin-1-ylmethyl)-1H-pyrrolo[2,3-b]pyridin-6-yl)-1-oxoisoindolin-2-yl) piperidine-2,6-dione], in experiment [1], the IC50 was 1000 to 5000 nM. The DC50 was 1 to 10 nM in experiment [2], below 1 nM in experiment [3] and 1000 to 10000 nM in experiment [4]. The Dmax is above 80% in experiment [2], above 80% in experiment [3] and 20 to 40% in experiment [4].
`O=C1CCC(N2Cc3cc(-c4cc(CN5CC6COCC(C6)C5)c5cc[nH]c5n4)ccc3C2=O)C(=O)N1` (stereo not drawn) [Example 121, 3-(5-(4-((3-oxa-7-azabicyclo[3.3.1]nonan-7-yl)methyl)-1H-pyrrolo[2,3-b]pyridin-6-yl)-1-oxoisoindolin-2-yl) piperidine-2,6-dio] yielded an IC50 in experiment [1] of 1000 to 5000 nM. The figures for the DC50 in experiment [2], in experiment [3] and in experiment [4] were 10 to 100 nM, 1 to 10 nM and above 10000 nM, respectively. Besides, the Dmax is above 80% in experiment [2], above 80% in experiment [3] and below 20% in experiment [4].
Take `O=C1CCC(N2Cc3cc(-c4cc(CN5CCCC5)c5ccn(C6CCC6)c5n4)ccc3C2=O)C(=O)N1` (stereo not drawn) [Example 128, 3-(5-(1-cyclobutyl-4-(pyrrolidin-1-ylmethyl)-1H-pyrrolo[2,3-b]pyridin-6-yl)-1-oxoisoindolin-2-yl) piperidine-2,6-dione]: the IC50 in experiment [1] lay in the range of 100 to 500 nM. Also, the DC50 in experiment [2] was 1 to 10 nM; in experiment [3] it was below 1 nM; in experiment [4] it was 10 to 100 nM. For the same compound, the Dmax in experiment [2] was above 80%; in experiment [3], above 80%; in experiment [4] it was 20 to 40%.
